# Measured values reported in patent US20020102262A1, “Collagen binding protein compositions and methods of use” (priority 1996, published 2002).
# “And” between values parts separate entries of the source, which are not always exact repeats. Equal entries are not always repeated.
# B1: double mutant (protein)
# chain: ARDISSTNVTDLTVSPSKIEDGGKTTVKMTFDDKNGKIQNGDMIKVAWPTSGTVKIEGYSKTVPLTVKGEQVGQAVITPDGATITFNDKVEKLSDVSGFAEFEVQGRNLTQTNTSDDKVATITSGNKSTNVTVHKSEAGTSSVFYYKTGDMLPEDTTHVRWFLNINNEKSYVSKDITIKDQIQGGQQLDLSTLNINVTGTHSAAYSGQSAITDFEKAFPGSKITVDNTKNTIDVTIPQGYGSYNSFSINYKTKITNEQQKEFVNNSQAWYQEHGKEEVNGKSFNHTVHNINANAGIEGTVKGELKVLKQDKDTKAPIANVKFKLSKKDGSVVKDNQKEIEIITDANGIANIKALPSGDYILKEIEAPRPYTFDKDKEYPFTMKDTDNQGYFTTIENAKAIEKTKDVSAQKVWEGTQKVKPTIYFKLYKQDDNQNTTPVDKAEIKKLEDGTTKVTWSNLPENDKNGKAIKYLVKEVNAQGEDTTPEGYTKKENGLVVTNTE
# Tests used:
# [1] = target: type II Col (collagen type II); test: peptide (5 µM) incubated with ^125I-Col before addition of S. aureus cells
# [2] = target: type II Col (collagen type II); test: peptide at 10 µM, inhibition of ^125I-labeled Col binding to S. aureus cells
# [3] = tested on: αCBD(151-297) IgG; test: ELISA reactivity of αCBD(151-297) IgG with eight 25-amino-acid synthetic CBD peptides; format: binding, rabbit; details: 25-amino-acid synthetic peptides as targets
# Experimental: Rabbits were immunized with […] as described. Sera were also collected prior to immunization and tested for reactivity to CBD(151-297). The reactivity of the antiserum with different segments of CBD(151-297) was tested in an ELISA using a series of eight 25-amino-acid long synthetic peptides with partially overlapping sequences as targets. Purified IgG reacted strongly with peptides 2, 3, 5, 6, and 7 and weakly with peptides 1, 4, and 8. When preimmune IgG was tested with the CBD peptides, little reaction could be detected. The relative immunological reactivity of the different peptides correlated closely with their antigenic index using the algorithm of Jameson and Wolf (1988).
# [4] = tested on: S. aureus; test: Inhibition of binding of 125I-labeled type II Col to S. aureus cells; design: species or system Staphylococcus aureus
# Experimental: Purified αCBD(151-297) IgG inhibited the binding of S. aureus to ^125I-labeled Col in a dose-dependent manner.
# (§1) To further investigate the interaction between peptide CBD4 and αCBD(151-297) IgG and its affect on Col binding, a fixed concentration of the antibody was incubated with an increasing amount of peptide CBD4. […] Thus, a relatively small reduction in inhibition could be easily detected.
# Peptide CBD7 which reacted strongly with αCBD(151-297) IgG in the ELISA assay was also tested. […] Five μM CBD4 inhibited binding by over 50%.
# To identify residues within CBD4 necessary for Col binding synthesized several smaller overlapping peptides were synthesized. A series of peptides that contained a 2 amino-terminal residues and one peptide that contained a 2 amino acid deletion at the carboxyl terminus were made. The peptides (10 μM) were assayed for their ability to inhibit the binding of ^1251I-labeled Col to S. aureus. Peptide CBD4 inhibited Col binding by 76%, whereas all peptides containing amino-terminal truncations had little activity at the concentration tested.
# [5] = tested on: αCBD(151-297) IgG; test: Neutralization of the inhibitory activity of αCBD(151-297) IgG by synthetic CBD peptides; format: binding, rabbit
# Experimental: The different synthetic CBD peptides described above and shown to react with the αCBD(151-297) IgG were assayed for their potential to neutralize the inhibitory activity of the antibody. The αCBD(151-297) IgG (12 μg) was preincubated with a single dose (100 μg) of each peptide in step one. The S. aureus cells were then added and the preincubation continued. Finally, the ^125I-labeled type II Col was added. Peptide CBD4 neutralized 68% of αCBD(151-297) IgG inhibitory activity, while the other peptides tested had little or no effect. […] Although other peptide sequences were more immunogenic than CBD4, the antibodies recognizing the corresponding epitopes were not inhibitory.
# as §1
# [6] = target: type II Col (collagen type II); test: BIAcore, immobilized type II Col; Scatchard analysis or Equation 1
# [7] = tested on: S. aureus strain Phillips; test: Mouse sepsis model, active immunization, intravenous challenge with S. aureus expressing CBP; format: in vivo, mice
# From the text: Gram-positive bacteria related sepsis is on the increase. In fact between one-third and one-half of all cases of sepsis are caused by gram-positive bacteria, particularly S. aureus and S. epidermidis. In the United States, it can be estimated that over 200,000 patients will develop gram-positive related sepsis this year. […] Mice were immunized subcutaneously with either M55 or a control antigen (bovine serum albumin) and then challenged intravenously with S. aureus. Eighty-three percent (35/42) of the mice immunized with M55 survived compared to only 27% of the BSA immunized mice (12/45). This is a compilation of 3 separate studies.
# Day -31: 100μg/mouse of a CBP Epitope (i.e. M17, M31, or M55) or BSA emulsified with Freund's Complete adjuvant (Difco Laboratories) as a control.
# Day -18: 100μg/mouse of a CBP Epitope (ie. M17, M31, or M55) or BSA dissolved in sterile phosphate buffered saline (PBS)
# Day -7: 100μg/mouse of a CBP Epitope (i.e. M17, M31, or M55) or BSA dissolved in PBS
# Day 0: inoculate intravenously S. aureus strain Phillips (which expresses CBP) (Dose: 2.8×10^7 cfu/mouse)
# Day 14: end of study; all surviving mice were euthanized.
# [8] = tested on: strain of S. aureus that does not express the Col-binding MSCRAMM; test: Mouse sepsis control study, challenge with S. aureus not expressing the Col-binding MSCRAMM; format: in vivo; details: immunized mice, challenge strain without Col-binding MSCRAMM
# From the text: The mortality in the M55 group was 50% compared to 30% in the BSA group.
# [9] = target: M55 (Staphylococcus aureus, UniProt Q53654); details: animals immunized with M55 and infected with a sub-lethal dose S. aureus
# Experimental: Serum level of specific antibodies against the collagen adhesion peptide M55 was measured by an enzyme-linked immunosorbent assay (ELISA). 96-well microplates (Nunc) were coated overnight at 4° C. with 2 μg/ml of M55 peptide. Blocking was done with 0.5% ovalbumin (Sigma Chemical Co., St. Louis, MO) dissolved in 0.05 M Tris (pH 7.7). Sera, biotinylated antibodies, the ExtrAvidin-peroxidase (Sigma) were all diluted in 0.05 M Tris (pH7.4)-0.015 M NaCl. The plates were incubated overnight at 4° C. with sera, washed and incubated stepwise with biotinylated goat anti-mouse IgG antibody (Jackson Immuno Research Laboratories, Inc., West Grove, PA), ExtrAvidin-peroxidase (0.5 μg/ml; Sigma) and ABTS substrate. The A405 was measured in a Titertec Multiscan photometer (Flow Laboratories, McLean, Va.). […] OVA was used as control solid antigen.
# [10] = target: type II Col (collagen type II); test: BIAcore, immobilized type II Col; three-component dissociation, the slowest component
# [11] = target: type II Col (collagen type II); test: BIAcore, immobilized type II Col; three-component dissociation, the two fastest components
# [12] = target: immobilized type II Col (Homo sapiens, UniProt P02458); test: BIAcore analysis of CBD(30-529) and mutants on immobilized type II Col; format: binding
# From the text: The importance of amino acid residues Asn^232 and Tyr ^33 in the MSCRAMM for Col binding was examined by creating specific mutants of CBD (30-529) and characterizing the interactions of these mutants with immobilized type II Col using the BlAcore. In the mutations made, the identified amino acid residues were replaced individually, (N^232 →A, Y^233 →A) or as a pair, (N^232 →A:Y^233→A) with alanine, a residue that is not expected to interfere with the existing secondary structure. The corresponding base changes were made using overlap extension PCR™ as described and the sequence changes confirmed experimentally. The recombinant proteins containing the mutations were purified to homogeneity by metal ion chelating chromatography.
# True equilibrium was not obtained during the injection time period due to the slow dissociation rate (koff). […] The dissociation phase gives information about the koff, and this rate is independent of the number of binding sites, analyte concentration, and flow rate. […] The association phase contains the information to determine the association rate koff the interaction, but it is also influenced by the dissociation rate, the number of binding sites for each interaction, and the concentration of the analyte. Because of the complexity of this interaction and the absence of measurable equilibrium data, it was not possible to determine the binding constant (KD), apparent binding ratio (BRapp), and kon.
# [13] = subcutaneous immunization, intravenous challenge, compilation of 3 separate studies
# type II Col (collagen type II), sequence (P02459 182-1241): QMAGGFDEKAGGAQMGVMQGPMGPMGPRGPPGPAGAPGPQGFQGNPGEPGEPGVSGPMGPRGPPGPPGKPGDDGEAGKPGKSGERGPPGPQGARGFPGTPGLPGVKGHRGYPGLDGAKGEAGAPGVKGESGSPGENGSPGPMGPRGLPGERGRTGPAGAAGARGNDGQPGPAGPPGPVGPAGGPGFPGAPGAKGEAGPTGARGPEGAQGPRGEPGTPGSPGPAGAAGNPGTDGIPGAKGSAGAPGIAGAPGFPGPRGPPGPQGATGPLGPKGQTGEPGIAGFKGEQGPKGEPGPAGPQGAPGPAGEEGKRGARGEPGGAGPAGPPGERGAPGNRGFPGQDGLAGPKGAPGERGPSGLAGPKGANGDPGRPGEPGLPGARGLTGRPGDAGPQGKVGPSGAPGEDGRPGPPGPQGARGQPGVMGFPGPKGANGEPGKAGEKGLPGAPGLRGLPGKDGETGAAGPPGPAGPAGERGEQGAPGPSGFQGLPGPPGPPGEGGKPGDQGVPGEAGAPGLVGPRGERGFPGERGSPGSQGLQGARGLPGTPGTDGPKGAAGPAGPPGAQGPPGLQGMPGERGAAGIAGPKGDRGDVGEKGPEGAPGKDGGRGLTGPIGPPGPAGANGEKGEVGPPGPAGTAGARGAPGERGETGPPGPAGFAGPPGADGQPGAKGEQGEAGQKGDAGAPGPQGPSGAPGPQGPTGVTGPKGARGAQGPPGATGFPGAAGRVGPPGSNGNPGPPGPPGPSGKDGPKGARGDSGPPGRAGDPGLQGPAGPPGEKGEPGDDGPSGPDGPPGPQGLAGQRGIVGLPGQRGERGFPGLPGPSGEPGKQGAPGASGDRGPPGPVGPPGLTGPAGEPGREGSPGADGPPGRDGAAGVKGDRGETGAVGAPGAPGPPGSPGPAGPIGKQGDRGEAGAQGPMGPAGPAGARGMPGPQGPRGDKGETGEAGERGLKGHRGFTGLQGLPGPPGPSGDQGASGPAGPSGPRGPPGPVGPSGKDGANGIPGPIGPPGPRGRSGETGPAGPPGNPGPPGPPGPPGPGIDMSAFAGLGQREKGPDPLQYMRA
# immobilized type II Col, sequence (P02458 182-1241 limits assumed): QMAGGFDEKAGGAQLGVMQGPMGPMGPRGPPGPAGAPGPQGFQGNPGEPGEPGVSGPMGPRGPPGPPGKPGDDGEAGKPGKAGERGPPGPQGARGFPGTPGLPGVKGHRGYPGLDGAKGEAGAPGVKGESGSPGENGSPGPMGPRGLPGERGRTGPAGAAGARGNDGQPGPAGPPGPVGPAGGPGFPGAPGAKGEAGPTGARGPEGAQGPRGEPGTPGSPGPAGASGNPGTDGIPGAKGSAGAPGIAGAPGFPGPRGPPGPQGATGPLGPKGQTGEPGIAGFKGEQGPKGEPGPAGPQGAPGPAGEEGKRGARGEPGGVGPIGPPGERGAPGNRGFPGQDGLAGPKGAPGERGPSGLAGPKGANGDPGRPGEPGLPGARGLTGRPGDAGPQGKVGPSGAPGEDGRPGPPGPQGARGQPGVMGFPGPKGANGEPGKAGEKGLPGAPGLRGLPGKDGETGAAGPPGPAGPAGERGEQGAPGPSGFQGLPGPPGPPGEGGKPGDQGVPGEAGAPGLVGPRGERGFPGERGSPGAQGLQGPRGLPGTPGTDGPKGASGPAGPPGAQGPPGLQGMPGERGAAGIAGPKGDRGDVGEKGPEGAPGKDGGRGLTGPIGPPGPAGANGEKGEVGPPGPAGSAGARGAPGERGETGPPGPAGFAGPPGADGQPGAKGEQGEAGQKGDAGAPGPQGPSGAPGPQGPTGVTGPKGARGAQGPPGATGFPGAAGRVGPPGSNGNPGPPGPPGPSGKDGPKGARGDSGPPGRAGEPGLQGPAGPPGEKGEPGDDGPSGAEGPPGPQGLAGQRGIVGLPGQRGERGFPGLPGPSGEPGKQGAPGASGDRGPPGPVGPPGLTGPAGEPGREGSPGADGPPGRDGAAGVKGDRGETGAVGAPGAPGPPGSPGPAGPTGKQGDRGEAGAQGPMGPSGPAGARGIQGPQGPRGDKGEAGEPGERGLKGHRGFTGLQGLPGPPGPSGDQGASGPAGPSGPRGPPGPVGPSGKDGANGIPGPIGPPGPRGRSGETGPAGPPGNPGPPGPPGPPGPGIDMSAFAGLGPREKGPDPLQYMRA
# M55, sequence (Q53654 18-529, looked up, natural form): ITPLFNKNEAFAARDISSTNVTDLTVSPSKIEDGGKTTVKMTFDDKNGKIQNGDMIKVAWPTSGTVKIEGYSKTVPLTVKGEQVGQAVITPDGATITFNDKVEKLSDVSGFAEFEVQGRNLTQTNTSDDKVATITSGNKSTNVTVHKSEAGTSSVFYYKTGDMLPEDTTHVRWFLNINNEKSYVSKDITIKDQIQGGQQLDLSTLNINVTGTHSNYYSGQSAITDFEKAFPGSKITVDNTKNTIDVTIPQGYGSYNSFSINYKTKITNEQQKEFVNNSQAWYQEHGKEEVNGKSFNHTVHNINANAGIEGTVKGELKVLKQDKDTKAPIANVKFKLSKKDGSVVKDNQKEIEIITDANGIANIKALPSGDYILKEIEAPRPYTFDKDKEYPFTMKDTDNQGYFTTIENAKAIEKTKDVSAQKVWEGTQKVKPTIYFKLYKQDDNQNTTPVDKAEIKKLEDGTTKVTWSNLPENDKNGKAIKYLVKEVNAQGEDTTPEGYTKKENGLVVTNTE
molecule,measurement,setting,value
Peptide CBD4 (from UniProt Q53654 209-233),percent inhibition of ^125I-Col binding to S. aureus,[1],> 50%
same,percent inhibition of ^125I-labeled Col binding to S. aureus,[2],76%
"CBD4: 25-amino-acid synthetic peptide, amino acids 209-233 (Asp209 to Tyr233) of S. aureus CBP (DQIQGGQQLDLSTLNINVTGTHSNY)",reactivity with purified αCBD(151-297) IgG in ELISA,[3],weakly
same,inhibition of 125I-Col binding to S. aureus,[4]; Five μM peptide incubated with 125I-Col before S. aureus,over 50%
same,direct inhibition of 125I-Col binding to S. aureus,[4]; increasing amounts of peptide preincubated with 125I-Col,inhibited in a dose-dependent manner
same,inhibition of binding of 125I-labeled Col to S. aureus,[4]; peptide 10 μM,76%
same,effect of peptide on Col binding to S. aureus in presence of αCBD(151-297) IgG,"[5]; 100 μg peptide, IgG 12 μg/ml",restored the level of Col binding to S. aureus observed in absence of αCBD(151-297) IgG
same,neutralization of αCBD(151-297) IgG inhibitory activity,[5]; IgG 12 μg preincubated with single dose 100 μg peptide,68%
CBD (30-529) N^232→A:Y^233→A (from UniProt Q53654 30-529),BRapp (apparent binding ratio),[6],2 sites and 3 sites
"M55: recombinant His-tagged S. aureus Col-binding MSCRAMM derivative, amino acids 30-531 of full length CBP (SEQ ID NO:6)",mice died/total,"[7]; 100μg/mouse on days -31, -18, -7, 2.8×10^7 cfu/mouse i.v. day 0, end day 14",4/11
same,protection against sepsis,[7]; in words,highly effective in protecting against sepsis
same,percent of mice surviving,[7]; [13],Eighty-three
same,surviving mice/total mice,[7]; [13],35/42
same,mortality,[8],50%
same,anti-M55 IgG (Col MSCRAMM) titers,[9],32×10^9 units/ml
"CBD (30-529), recombinant S. aureus Col MSCRAMM fragment (wild type) (from UniProt Q53654 30-529)",koff,[10],0.0005 s⁻¹
same,koff,[11],> 0.01 s⁻¹
B1,affinity and apparent binding ratio compared to wild type,[12],even more significant decreasesin affinity and apparent binding ratio
same,apparent binding ratio (BRapp),[12]; Scatchard analysis or Equation 1,approximately two to three high affinity sites
